Source: patent publication US12319672B2, “Alpha-D-galactopyranoside derivatives” (Idorsia Pharmaceuticals Ltd, priority 2019, dated 2025)

How the values were obtained:
human Gal-3 (hGal-3) = human Gal-3 (hGal-3) (Homo sapiens (Human), UniProt P17931); test: Competitive binding assay: binding of biotinylated hGal-3 to microplate-adsorbed asialofetuin (ASF); conditions: Activity on hGal-3; mean values of several measurements
Method in brief: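 Biotinylated hGal-3 (300-1000 ng/mL) bound to ASF-coated wells with serially diluted compound, 3 h at 4° C. After washing, bound protein was detected with streptavidin-peroxidase (80 ng/mL, 1 h, 4° C) and ABTS substrate; IC50 values are means of several measurements.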

human Gal-1 (hGal-1) = test: Competitive binding assay: binding of biotinylated hGal-1 to microplate-adsorbed asialofetuin (ASF); conditions: Activities on hGal-1; mean values of several measurements
Sequence of human Gal-1 (hGal-1) (P09382 2-135 limits assumed): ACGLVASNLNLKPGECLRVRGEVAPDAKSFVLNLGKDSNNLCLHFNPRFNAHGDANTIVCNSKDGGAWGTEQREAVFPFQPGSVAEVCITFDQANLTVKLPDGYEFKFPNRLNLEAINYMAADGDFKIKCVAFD
Method in brief: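 Compounds diluted in DMSO competed with biotinylated hGal-3 or hGal-1 (300-1000 ng/mL) for binding to plate-adsorbed asialofetuin for 3 h at 4° C. Bound galectin was detected with streptavidin-peroxidase (80 ng/mL, 1 h, 4° C) and ABTS substrate; IC50 reported as mean of several measurements.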

Sequence of human Gal-3 (hGal-3) (P17931 whole entry): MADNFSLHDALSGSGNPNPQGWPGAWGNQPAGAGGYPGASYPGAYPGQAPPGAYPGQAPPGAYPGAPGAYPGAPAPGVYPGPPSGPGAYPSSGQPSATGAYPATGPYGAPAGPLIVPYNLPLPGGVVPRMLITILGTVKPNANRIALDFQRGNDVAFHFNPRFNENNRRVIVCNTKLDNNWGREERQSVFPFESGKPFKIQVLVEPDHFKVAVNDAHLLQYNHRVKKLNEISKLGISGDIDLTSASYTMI

Row | IC50 (human Gal-3 (hGal-3)) | IC50 (human Gal-1 (hGal-1)) | Compound
1 | 43 nM | 450 nM | CO[C@@H]1[C@@H](n2cc(-c3cc(F)c(F)c(F)c3)nn2)[C@@H](O)[C@@H](CO)O[C@@H]1Cc1cc(C2CCN(C(=O)NC(C)C)CC2)on1 [Example 3.38, 4-(3-(((2R,3R,4S,5R,6R)-5-hydroxy-6-(hydroxymethyl)-3-methoxy-4-(4-(3,4,5-trifluorophenyl)-1H-1,2,3-triazol-1-yl)tetrahydro-2H-pyran-2-yl)methyl)isoxazol-5-yl)-N-isopropylpiperidine-1-carboxamide]
2 | 260 nM | 5090 nM | CO[C@@H]1[C@@H](n2cc(-c3cc(F)c(F)c(F)c3)nn2)[C@@H](O)[C@@H](CO)O[C@@H]1Cc1cc(C2CCN(C)CC2)on1 [Example 3.39, (2R,3R,4S,5R,6R)-2-(hydroxymethyl)-5-methoxy-6-((5-(1-methylpiperidin-4-yl)isoxazol-3-yl)methyl)-4-(4-(3,4,5-trifluorophenyl)-1H-1,2,3-triazol-1-yl)tetrahydro-2H-pyran-3-ol]
3 | 230 nM | 2960 nM | CO[C@@H]1[C@@H](n2cc(-c3cc(F)c(F)c(F)c3)nn2)[C@@H](O)[C@@H](CO)O[C@@H]1Cc1cc(C2CCN(CC(C)C)CC2)on1 [Example 3.41, (2R,3R,4S,5R,6R)-2-(hydroxymethyl)-6-((5-(1-isobutylpiperidin-4-yl)isoxazol-3-yl)methyl)-5-methoxy-4-(4-(3,4,5-trifluorophenyl)-1H-1,2,3-triazol-1-yl)tetrahydro-2H-pyran-3-ol]
4 | 140 nM | 5900 nM | CO[C@@H]1[C@@H](n2cc(-c3cc(F)c(F)c(F)c3)nn2)[C@@H](O)[C@@H](CO)O[C@@H]1Cc1cc(C2CCN(CCC(C)(C)C)CC2)on1 [Example 3.42, (2R,3R,4S,5R,6R)-6-((5-(1-(3,3-dimethylbutyl)piperidin-4-yl)isoxazol-3-yl)methyl)-2-(hydroxymethyl)-5-methoxy-4-(4-(3,4,5-trifluorophenyl)-1H-1,2,3-triazol-1-yl)tetrahydro-2H-pyran-3-ol]
5 | 130 nM | 2830 nM | CO[C@@H]1[C@@H](n2cc(-c3cc(F)c(F)c(F)c3)nn2)[C@@H](O)[C@@H](CO)O[C@@H]1Cc1cc(C2CCN(CC3CC3)CC2)on1 [Example 3.43, (2R,3R,4S,5R,6R)-6-((5-(1-(cyclopropylmethyl)piperidin-4-yl)isoxazol-3-yl)methyl)-2-(hydroxymethyl)-5-methoxy-4-(4-(3,4,5-trifluorophenyl)-1H-1,2,3-triazol-1-yl)tetrahydro-2H-pyran-3-ol]
6 | 560 nM | 5320 nM | CO[C@@H]1[C@@H](n2cc(-c3cc(F)c(F)c(F)c3)nn2)[C@@H](O)[C@@H](CO)O[C@@H]1Cc1cc(C2CCN(CC3COC3)CC2)on1 [Example 3.44, (2R,3R,4S,5R,6R)-2-(hydroxymethyl)-5-methoxy-6-((5-(1-(oxetan-3-ylmethyl)piperidin-4-yl)isoxazol-3-yl)methyl)-4-(4-(3,4,5-trifluorophenyl)-1H-1,2,3-triazol-1-yl)tetrahydro-2H-pyran-3-ol]
7 | 37 nM | 490 nM | CO[C@@H]1[C@@H](n2cc(-c3cc(F)c(F)c(F)c3)nn2)[C@@H](O)[C@@H](CO)O[C@@H]1Cc1cc(C2CCN(S(C)(=O)=O)CC2)on1 [Example 3.45, (2R,3R,4S,5R,6R)-2-(hydroxymethyl)-5-methoxy-6-((5-(1-(methylsulfonyl)piperidin-4-yl)isoxazol-3-yl)methyl)-4-(4-(3,4,5-trifluorophenyl)-1H-1,2,3-triazol-1-yl)tetrahydro-2H-pyran-3-ol]
8 | 44 nM | 580 nM | CCCS(=O)(=O)N1CCC(c2cc(C[C@H]3O[C@H](CO)[C@H](O)[C@H](n4cc(-c5cc(F)c(F)c(F)c5)nn4)[C@H]3OC)no2)CC1 [Example 3.46, (2R,3R,4S,5R,6R)-2-(hydroxymethyl)-5-methoxy-6-((5-(1-(propylsulfonyl)piperidin-4-yl)isoxazol-3-yl)methyl)-4-(4-(3,4,5-trifluorophenyl)-1H-1,2,3-triazol-1-yl)tetrahydro-2H-pyran-3-ol]
9 | 50 nM | 760 nM | CO[C@@H]1[C@@H](n2cc(-c3cc(F)c(F)c(F)c3)nn2)[C@@H](O)[C@@H](CO)O[C@@H]1Cc1cc(C2CCN(S(=O)(=O)C(C)C)CC2)on1 [Example 3.47, (2R,3R,4S,5R,6R)-2-(hydroxymethyl)-6-((5-(1-(isopropylsulfonyl)piperidin-4-yl)isoxazol-3-yl)methyl)-5-methoxy-4-(4-(3,4,5-trifluorophenyl)-1H-1,2,3-triazol-1-yl)tetrahydro-2H-pyran-3-ol]
10 | 41 nM | 470 nM | CO[C@@H]1[C@@H](n2cc(-c3cc(F)c(F)c(F)c3)nn2)[C@@H](O)[C@@H](CO)O[C@@H]1Cc1cc(C2CCN(C(=O)CC(C)C)CC2)on1 [Example 3.48, 1-(4-(3-(((2R,3R,4S,5R,6R)-5-hydroxy-6-(hydroxymethyl)-3-methoxy-4-(4-(3,4,5-trifluorophenyl)-1H-1,2,3-triazol-1-yl)tetrahydro-2H-pyran-2-yl)methyl)isoxazol-5-yl)piperidin-1-yl)-3-methylbutan-1-one]
11 | 57 nM | 530 nM | CO[C@@H]1[C@@H](n2cc(-c3cc(F)c(F)c(F)c3)nn2)[C@@H](O)[C@@H](CO)O[C@@H]1Cc1cc(C2CCN(C(=O)C3CCCC3)CC2)on1 [Example 3.49, cyclopentyl(4-(3-(((2R,3R,4S,5R,6R)-5-hydroxy-6-(hydroxymethyl)-3-methoxy-4-(4-(3,4,5-trifluorophenyl)-1H-1,2,3-triazol-1-yl)tetrahydro-2H-pyran-2-yl)methyl)isoxazol-5-yl)piperidin-1-yl)methanone]
12 | 45 nM | 590 nM | CO[C@@H]1[C@@H](n2cc(-c3cc(F)c(F)c(F)c3)nn2)[C@@H](O)[C@@H](CO)O[C@@H]1Cc1cc(C2CCN(C(=O)C3CCC3)CC2)on1 [Example 3.50, cyclobutyl(4-(3-(((2R,3R,4S,5R,6R)-5-hydroxy-6-(hydroxymethyl)-3-methoxy-4-(4-(3,4,5-trifluorophenyl)-1H-1,2,3-triazol-1-yl)tetrahydro-2H-pyran-2-yl)methyl)isoxazol-5-yl)piperidin-1-yl)methanone]
13 | 31 nM | 230 nM | CO[C@@H]1[C@@H](n2cc(-c3cc(F)c(F)c(F)c3)nn2)[C@@H](O)[C@@H](CO)O[C@@H]1Cc1cc(C2CCN(C(=O)NC(C)(C)C)CC2)on1 [Example 3.52, N-(tert-butyl)-4-(3-(((2R,3R,4S,5R,6R)-5-hydroxy-6-(hydroxymethyl)-3-methoxy-4-(4-(3,4,5-trifluorophenyl)-1H-1,2,3-triazol-1-yl)tetrahydro-2H-pyran-2-yl)methyl)isoxazol-5-yl)piperidine-1-carboxamide]
14 | 440 nM | 1510 nM | CO[C@@H]1[C@@H](n2cc(-c3cc(F)c(F)c(F)c3)nn2)[C@@H](O)[C@@H](CO)O[C@@H]1Cc1cc(C2CCN(C(=O)[C@@H](N)C(C)C)CC2)on1 [Example 3.54, (S)-2-amino-1-(4-(3-(((2R,3R,4S,5R,6R)-5-hydroxy-6-(hydroxymethyl)-3-methoxy-4-(4-(3,4,5-trifluorophenyl)-1H-1,2,3-triazol-1-yl)tetrahydro-2H-pyran-2-yl)methyl)isoxazol-5-yl)piperidin-1-yl)-3-methylbutan-1-one]
15 | 61 nM | 1870 nM | CO[C@@H]1[C@@H](n2cc(-c3cc(F)c(F)c(F)c3)nn2)[C@@H](O)[C@@H](CO)O[C@@H]1Cc1cc(C2CCN(S(=O)(=O)N(C)C)CC2)on1 [Example 3.58, 4-(3-(((2R,3R,4S,5R,6R)-5-hydroxy-6-(hydroxymethyl)-3-methoxy-4-(4-(3,4,5-trifluorophenyl)-1H-1,2,3-triazol-1-yl)tetrahydro-2H-pyran-2-yl)methyl)isoxazol-5-yl)-N,N-dimethylpiperidine-1-sulfonamide]
16 | 42 nM | 980 nM | CO[C@@H]1[C@@H](n2cc(-c3cc(F)c(F)c(F)c3)nn2)[C@@H](O)[C@@H](CO)O[C@@H]1Cc1cc(C2CCN(C(=O)NC3CC3)CC2)on1 [Example 3.59, N-cyclopropyl-4-(3-(((2R,3R,4S,5R,6R)-5-hydroxy-6-(hydroxymethyl)-3-methoxy-4-(4-(3,4,5-trifluorophenyl)-1H-1,2,3-triazol-1-yl)tetrahydro-2H-pyran-2-yl)methyl)isoxazol-5-yl)piperidine-1-carboxamide]
17 | 370 nM | 5100 nM | CO[C@@H]1[C@@H](n2cc(-c3cc(F)c(F)c(F)c3)nn2)[C@@H](O)[C@@H](CO)O[C@@H]1C[C@H]1CC(C2CCN(S(=O)(=O)C(C)C)CC2)=NO1 [Example 3.60, (2R,3R,4S,5R,6R)-2-(hydroxymethyl)-6-(((R)-3-(1-(isopropylsulfonyl)piperidin-4-yl)-4,5-dihydroisoxazol-5-yl)methyl)-5-methoxy-4-(4-(3,4,5-trifluorophenyl)-1H-1,2,3-triazol-1-yl)tetrahydro-2H-pyran-3-ol]
18 | 72 nM | 1120 nM | CO[C@@H]1[C@@H](n2cc(-c3cc(F)c(F)c(F)c3)nn2)[C@@H](O)[C@@H](CO)O[C@@H]1C[C@@H]1CC(C2CCN(S(=O)(=O)C(C)C)CC2)=NO1 [Example 3.61, (2R,3R,4S,5R,6R)-2-(hydroxymethyl)-6-(((S)-3-(1-(isopropylsulfonyl)piperidin-4-yl)-4,5-dihydroisoxazol-5-yl)methyl)-5-methoxy-4-(4-(3,4,5-trifluorophenyl)-1H-1,2,3-triazol-1-yl)tetrahydro-2H-pyran-3-ol]
